From the supplement of paper PMC13386468

Tests used:
Test in all cases: IC50 for competition of protein binding to Kinobeads
Conditions in all cases: assay detail: Kinobeads competition in P. falciparum blood-stage lysate
[1] = target: UniProt A0A144A2H0
[2] = target: UniProt C0H4C5
[3] = target: UniProt C0H570
[4] = target: UniProt C0H5L6
[5] = target: UniProt C6KT19
[6] = target: UniProt O77312
[7] = target: UniProt O77344
[8] = target: UniProt O77396
[9] = target: UniProt P61076
[10] = target: UniProt Q6ZMA7
Sequence of UniProt Q6ZMA7 (Q6ZMA7 whole entry): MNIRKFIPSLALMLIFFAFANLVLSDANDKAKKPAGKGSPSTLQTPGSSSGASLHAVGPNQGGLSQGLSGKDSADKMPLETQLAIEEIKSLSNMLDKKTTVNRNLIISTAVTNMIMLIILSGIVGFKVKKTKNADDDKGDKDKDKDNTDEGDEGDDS

[11] = target: UniProt Q76NL8
Sequence of UniProt Q76NL8 (Q76NL8 whole entry): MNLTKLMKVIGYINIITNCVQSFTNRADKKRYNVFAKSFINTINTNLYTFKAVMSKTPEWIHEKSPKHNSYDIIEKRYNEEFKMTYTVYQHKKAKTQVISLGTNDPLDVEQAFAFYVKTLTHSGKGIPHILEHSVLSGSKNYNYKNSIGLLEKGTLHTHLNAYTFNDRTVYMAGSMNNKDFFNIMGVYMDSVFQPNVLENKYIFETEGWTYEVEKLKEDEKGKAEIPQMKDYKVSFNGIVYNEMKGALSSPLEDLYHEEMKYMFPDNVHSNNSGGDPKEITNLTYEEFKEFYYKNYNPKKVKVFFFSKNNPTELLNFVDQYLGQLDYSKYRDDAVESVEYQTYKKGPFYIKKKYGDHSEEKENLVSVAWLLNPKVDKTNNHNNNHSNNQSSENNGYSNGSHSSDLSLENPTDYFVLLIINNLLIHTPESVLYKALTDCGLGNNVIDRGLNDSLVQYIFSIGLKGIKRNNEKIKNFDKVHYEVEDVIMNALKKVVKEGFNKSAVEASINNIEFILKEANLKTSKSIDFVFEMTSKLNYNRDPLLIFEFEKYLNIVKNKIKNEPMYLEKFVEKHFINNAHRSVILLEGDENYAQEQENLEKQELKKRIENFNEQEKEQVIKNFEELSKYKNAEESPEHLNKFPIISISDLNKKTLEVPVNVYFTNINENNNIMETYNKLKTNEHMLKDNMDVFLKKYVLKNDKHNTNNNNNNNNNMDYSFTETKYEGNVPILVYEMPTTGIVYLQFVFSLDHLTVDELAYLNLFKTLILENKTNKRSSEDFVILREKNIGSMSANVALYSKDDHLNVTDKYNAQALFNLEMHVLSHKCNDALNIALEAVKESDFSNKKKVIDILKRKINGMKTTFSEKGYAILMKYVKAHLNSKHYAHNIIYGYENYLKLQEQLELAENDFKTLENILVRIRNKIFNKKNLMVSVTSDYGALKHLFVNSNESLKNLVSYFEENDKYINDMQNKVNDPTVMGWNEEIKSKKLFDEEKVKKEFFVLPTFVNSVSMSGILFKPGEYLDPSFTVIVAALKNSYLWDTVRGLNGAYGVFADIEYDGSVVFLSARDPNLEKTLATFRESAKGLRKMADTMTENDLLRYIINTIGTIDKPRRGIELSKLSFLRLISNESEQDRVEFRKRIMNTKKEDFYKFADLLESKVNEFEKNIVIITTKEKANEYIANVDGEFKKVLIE

[12] = target: UniProt Q8I1V2
[13] = target: UniProt Q8I1Z8
[14] = target: UniProt Q8I2B1
[15] = target: UniProt Q8I2W4
[16] = target: UniProt Q8I2X0
[17] = target: UniProt Q8I3T9
[18] = target: UniProt Q8I3Z5
Sequence of UniProt Q8I3Z5 (Q8I3Z5 whole entry): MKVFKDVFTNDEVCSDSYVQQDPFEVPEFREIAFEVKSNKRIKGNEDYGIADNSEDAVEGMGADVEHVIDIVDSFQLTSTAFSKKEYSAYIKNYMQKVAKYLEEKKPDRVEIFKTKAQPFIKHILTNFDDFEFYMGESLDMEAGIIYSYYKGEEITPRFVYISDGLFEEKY

[19] = target: UniProt Q8I442
[20] = target: UniProt Q8I487
[21] = target: UniProt Q8I492
[22] = target: UniProt Q8I5C4
[23] = target: UniProt Q8I5S4
[24] = target: UniProt Q8I635
[25] = target: UniProt Q8IAM2
[26] = target: UniProt Q8IDB0
[27] = target: UniProt Q8IDF6
Sequence of UniProt Q8IDF6 (Q8IDF6 whole entry): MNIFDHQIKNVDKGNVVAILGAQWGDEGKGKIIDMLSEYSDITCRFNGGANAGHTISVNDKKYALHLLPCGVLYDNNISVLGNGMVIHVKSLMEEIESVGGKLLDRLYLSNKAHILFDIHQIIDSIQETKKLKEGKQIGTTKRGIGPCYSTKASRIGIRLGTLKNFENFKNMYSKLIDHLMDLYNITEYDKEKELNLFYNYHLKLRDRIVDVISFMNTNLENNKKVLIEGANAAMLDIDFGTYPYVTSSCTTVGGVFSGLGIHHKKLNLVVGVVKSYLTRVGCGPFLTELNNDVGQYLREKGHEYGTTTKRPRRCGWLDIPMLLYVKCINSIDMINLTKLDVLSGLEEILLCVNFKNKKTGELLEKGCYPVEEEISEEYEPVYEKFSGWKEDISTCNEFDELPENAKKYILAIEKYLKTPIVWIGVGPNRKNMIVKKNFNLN

[28] = target: UniProt Q8IDK7
[29] = target: UniProt Q8IDN6
[30] = target: UniProt Q8IDW4
[31] = target: UniProt Q8IE18
[32] = target: UniProt Q8IEE5
[33] = target: UniProt Q8IEN3
[34] = target: UniProt Q8IEQ1
[35] = target: UniProt Q8II16
[36] = target: UniProt Q8II22
[37] = target: UniProt Q8II72
[38] = target: UniProt Q8II92
[39] = target: UniProt Q8IIJ9
Sequence of UniProt Q8IIJ9 (Q8IIJ9 whole entry): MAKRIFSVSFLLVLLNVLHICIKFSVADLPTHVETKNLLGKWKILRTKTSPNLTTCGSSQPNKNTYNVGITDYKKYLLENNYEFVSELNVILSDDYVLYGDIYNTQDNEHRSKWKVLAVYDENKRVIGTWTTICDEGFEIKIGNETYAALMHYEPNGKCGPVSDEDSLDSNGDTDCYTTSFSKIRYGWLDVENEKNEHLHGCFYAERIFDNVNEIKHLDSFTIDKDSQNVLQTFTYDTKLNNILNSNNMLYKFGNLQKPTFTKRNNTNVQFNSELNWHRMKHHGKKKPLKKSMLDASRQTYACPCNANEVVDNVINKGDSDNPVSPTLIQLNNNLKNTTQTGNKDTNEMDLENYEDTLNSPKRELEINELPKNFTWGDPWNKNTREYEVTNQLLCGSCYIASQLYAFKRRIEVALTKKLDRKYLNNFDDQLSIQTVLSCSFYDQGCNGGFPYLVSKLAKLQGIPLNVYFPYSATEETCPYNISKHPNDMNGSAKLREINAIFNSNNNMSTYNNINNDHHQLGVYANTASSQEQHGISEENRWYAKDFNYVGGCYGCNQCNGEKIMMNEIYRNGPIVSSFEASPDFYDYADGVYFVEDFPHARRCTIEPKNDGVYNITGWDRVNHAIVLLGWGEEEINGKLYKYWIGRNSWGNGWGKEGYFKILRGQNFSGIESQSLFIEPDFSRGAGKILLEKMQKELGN

[40] = target: UniProt Q8IIK4
Sequence of UniProt Q8IIK4 (Q8IIK4 whole entry): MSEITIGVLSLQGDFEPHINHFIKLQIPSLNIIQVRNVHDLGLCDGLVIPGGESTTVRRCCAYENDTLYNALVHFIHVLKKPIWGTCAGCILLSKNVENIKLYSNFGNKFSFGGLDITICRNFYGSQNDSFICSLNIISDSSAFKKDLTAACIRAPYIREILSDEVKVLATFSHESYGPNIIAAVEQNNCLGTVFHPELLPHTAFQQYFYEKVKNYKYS

[41] = target: UniProt Q8IIL0
Sequence of UniProt Q8IIL0 (Q8IIL0 whole entry): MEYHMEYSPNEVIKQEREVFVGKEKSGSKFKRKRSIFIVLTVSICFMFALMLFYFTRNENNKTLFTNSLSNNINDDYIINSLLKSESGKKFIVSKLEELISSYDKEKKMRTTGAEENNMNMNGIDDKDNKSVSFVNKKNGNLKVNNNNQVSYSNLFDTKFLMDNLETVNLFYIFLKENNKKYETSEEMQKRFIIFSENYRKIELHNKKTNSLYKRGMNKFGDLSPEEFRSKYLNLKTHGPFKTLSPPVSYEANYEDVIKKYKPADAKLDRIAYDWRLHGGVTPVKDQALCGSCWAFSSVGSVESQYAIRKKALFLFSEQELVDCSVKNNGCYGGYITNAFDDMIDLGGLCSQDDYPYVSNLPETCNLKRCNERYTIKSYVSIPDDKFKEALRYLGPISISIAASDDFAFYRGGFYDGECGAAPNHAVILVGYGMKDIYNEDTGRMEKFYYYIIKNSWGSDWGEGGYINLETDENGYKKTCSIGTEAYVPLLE

[42] = target: UniProt Q8IIV2
[43] = target: UniProt Q8IJ37
[44] = target: UniProt Q8IJN9
[45] = target: UniProt Q8IJV7
[46] = target: UniProt Q8IKL5
[47] = target: UniProt Q8IKN7
[48] = target: UniProt Q8ILN8
[49] = target: UniProt Q8ILR7
[50] = target: UniProt Q8ILV2
[51] = target: UniProt Q8IM01
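Further: native unpurified kinases from lysate captured on beads bearing immobilized kinase inhibitors, with bead-bound kinases quantified by mass spectrometry across compound doses.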

Sequence of UniProt A0A144A2H0 (A0A144A2H0 whole entry): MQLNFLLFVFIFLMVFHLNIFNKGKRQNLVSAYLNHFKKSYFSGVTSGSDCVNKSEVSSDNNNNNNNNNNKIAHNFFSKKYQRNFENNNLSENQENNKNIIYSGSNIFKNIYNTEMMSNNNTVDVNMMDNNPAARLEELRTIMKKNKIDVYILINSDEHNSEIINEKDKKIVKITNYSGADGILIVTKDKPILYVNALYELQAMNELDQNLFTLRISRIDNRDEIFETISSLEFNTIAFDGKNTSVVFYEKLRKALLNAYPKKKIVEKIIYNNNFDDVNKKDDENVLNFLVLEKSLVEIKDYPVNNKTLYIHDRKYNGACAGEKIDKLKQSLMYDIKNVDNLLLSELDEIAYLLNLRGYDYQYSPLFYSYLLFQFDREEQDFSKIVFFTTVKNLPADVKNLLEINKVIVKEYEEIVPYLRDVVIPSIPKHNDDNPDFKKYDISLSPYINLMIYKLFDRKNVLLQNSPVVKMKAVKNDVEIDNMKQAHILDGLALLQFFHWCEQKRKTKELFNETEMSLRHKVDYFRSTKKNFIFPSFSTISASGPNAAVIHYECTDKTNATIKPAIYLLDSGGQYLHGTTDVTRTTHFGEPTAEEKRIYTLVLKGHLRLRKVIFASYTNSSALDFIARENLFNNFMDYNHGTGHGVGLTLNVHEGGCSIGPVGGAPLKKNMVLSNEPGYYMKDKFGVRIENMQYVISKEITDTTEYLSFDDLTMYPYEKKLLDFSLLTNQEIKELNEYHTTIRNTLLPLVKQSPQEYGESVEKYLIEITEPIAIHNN
Sequence of UniProt P61076 (P61076 whole entry): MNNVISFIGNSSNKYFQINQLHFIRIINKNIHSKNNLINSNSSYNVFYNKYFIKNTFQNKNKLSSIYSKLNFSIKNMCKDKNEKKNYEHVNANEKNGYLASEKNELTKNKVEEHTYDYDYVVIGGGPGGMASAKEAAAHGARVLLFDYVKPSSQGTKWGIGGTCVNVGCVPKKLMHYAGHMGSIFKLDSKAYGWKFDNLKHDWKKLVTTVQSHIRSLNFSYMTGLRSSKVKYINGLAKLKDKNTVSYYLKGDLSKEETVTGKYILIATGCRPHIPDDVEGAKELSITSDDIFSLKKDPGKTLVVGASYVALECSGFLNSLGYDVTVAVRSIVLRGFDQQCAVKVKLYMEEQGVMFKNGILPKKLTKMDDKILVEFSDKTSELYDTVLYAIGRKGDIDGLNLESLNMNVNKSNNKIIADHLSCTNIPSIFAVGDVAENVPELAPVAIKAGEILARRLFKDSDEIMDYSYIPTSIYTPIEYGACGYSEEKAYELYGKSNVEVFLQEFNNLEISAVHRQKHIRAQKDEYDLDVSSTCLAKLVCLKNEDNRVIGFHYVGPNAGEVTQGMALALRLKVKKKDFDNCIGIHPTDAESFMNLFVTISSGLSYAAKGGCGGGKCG

## O=c1[nH]c2ccc(Cl)cc2c(NC2CN3CCC2CC3)c1-c1nc2ccccc2[nH]1 (stereo unspecified) [CHIR-124]
[1]
  IC50: > 20 µM
[2]
  IC50: > 20 µM
[3]
  IC50: > 20 µM
[4]
  IC50: > 20 µM
[5]
  IC50: > 20 µM
[6]
  IC50: > 20 µM
[7]
  IC50: 2950 nM
[8]
  IC50: > 20 µM
[9]
  IC50: > 20 µM
[10]
  IC50: > 20 µM
[11]
  IC50: > 20 µM
[12]
  IC50: > 20 µM
[13]
  IC50: > 20 µM
[14]
  IC50: > 20 µM
[15]
  IC50: > 20 µM
[16]
  IC50: > 20 µM
[17]
  IC50: > 20 µM
[18]
  IC50: > 20 µM
[19]
  IC50: 9.2 µM
[20]
  IC50: > 20 µM
[21]
  IC50: > 20 µM
[22]
  IC50: > 20 µM
[23]
  IC50: > 20 µM
[24]
  IC50: > 20 µM
[25]
  IC50: > 20 µM
[26]
  IC50: > 20 µM
[27]
  IC50: > 20 µM
[28]
  IC50: > 20 µM
[29]
  IC50: > 20 µM
[30]
  IC50: > 20 µM
[31]
  IC50: > 20 µM
[32]
  IC50: > 20 µM
[33]
  IC50: > 20 µM
[34]
  IC50: > 20 µM
[35]
  IC50: > 20 µM
[36]
  IC50: > 20 µM
[37]
  IC50: > 20 µM
[38]
  IC50: > 20 µM
[39]
  IC50: > 20 µM
[40]
  IC50: > 20 µM
[41]
  IC50: > 20 µM
[42]
  IC50: > 20 µM
[43]
  IC50: > 20 µM
[44]
  IC50: > 20 µM
[45]
  IC50: > 20 µM
[46]
  IC50: > 20 µM
[47]
  IC50: > 20 µM
[48]
  IC50: > 20 µM
[49]
  IC50: > 20 µM
[50]
  IC50: > 20 µM
[51]
  IC50: > 20 µM
